Key:
Type in all cases: cell-based, mouse
[1] = system: Htt-72Q-expressing primary cortical neurons; experiment: Epigenetic drug library screen, resazurin (Alamar Blue) assay; settings: 0.02, 0.2, 2 μM added at DIV 6, resazurin at DIV 14; hits validated by MTS
Procedure: As epigenetic gene regulation is a cell-type specific mechanism, we used a physiologically relevant, post-mitotic cortical neuron culture system for this screen. In this system, lentivirus-mediated expression of the exon 1-encoded N-terminal fragment of mutant Htt (Htt-72Q with a 72 glutamine repeat), but not wild-type (WT) Htt (Htt-25Q), induces neurotoxicity^38. […] In the drug screen, the viability of Htt-expressing cortical neurons was determined by the resazurin (Alamar Blue) assay, a quantitative measurement of mitochondrial metabolic activity, which correlates with cell viability.
Epigenetic drug screen was performed using a primary cortical neuron model of HD with a drug library composed of 84 compounds (Table 1), among which 80 drugs are purchased from Cayman Chemical (Epigenetic Screening Library Item No 11076) and four drugs, SGC0946, EPZ5676, EPZ6438, and GSK126, were obtained from Xcessbio Biosciences Inc. Mouse primary cortical neurons were plated on 96-well flat clear bottom black plates (Corning #3904). WT or mutant Htt exon1 fragment (Htt-25Q or Htt-72Q)-expressing lentiviruses are infected at DIV 5 as described above. The 84 compounds were added to the media at DIV 6 one day after Htt lentiviral infection with three different doses (0.02, 0.2, 2 μM) for each compound at triplicates. DMSO was used as control. Media containing compounds or DMSO were changed every three days to maintain the compounds' activity. At DIV 14, the viability of neurons was determined by resazurin (Alamar blue) assay, a quantitative measurement of mitochondrial metabolic activity. The screen was fully automated and performed in the High-Throughput Screening Center in Washington University School of Medicine. Any possible plate effects were determined using control plates treated with DMSO and used for normalization. Screen hits were validated by MTS assay.

[2] = system: Htt-72Q-expressing primary cortical neurons; experiment: MTS cell viability assay in Htt-expressing primary cortical neurons; settings: for viability of mutant Htt-expressing neurons (MTS assay), validation of screen hits: 0.02, 0.2, 2 μM vs Htt-72Q (0 μM); for viability of Htt-72Q-expressing neurons (MTS assay): MTS at DIV 14
Procedure: Mouse primary cortical and striatal neurons from embryonic day (E) 15.5 Swiss Webster mouse fetuses (Taconic) were first plated in the minimal essential medium (MEM) containing 10% FBS, 0.45% glucose, 1 mM sodium pyruvate, 2 mM glutamine, 20 U/ml penicillin and 20 μg/ml streptomycin, for 3 h and then maintained in serum-free Neurobasal medium (Life Technologies) containing NeuroCult™ SM1 neuronal supplement ([…] Technologies), 0.5 mM glutamine and 25 μM glutamate for the first 3 d in a humidified incubator (37° C. in 5% CO2). Half of the medium was replaced with Neurobasal medium with SM1 and 0.5 mM glutamine every 3 days. Primary cortical neurons plated on 96-well flat clear bottom black plates (Corning #3904) at 4×10^4 cells/well were infected with Htt exon1 expression lentivirus (Htt-25Q or Htt-72Q) or control empty vector lentivirus at 5 days in vitro (DIV 5). Primary striatal neurons plated on 96-well plates at 1×10^5 cells/well were infected with Htt exon1 expression lentivirus at DIV 4. Viral copy number was adjusted for transduction of neurons on the basis of titer measured using the Lenti-X qRT-PCR titration kit (Clontech), and equal numbers of viral particles of Htt-25Q and Htt-72Q expressing lentiviruses were used for transduction. For the experiments to test effects of DNMT inhibitors, neurons were treated with inhibitors six hours after Htt lentiviral infection. One half of the media was changed every 3 days with media containing new drug. In knockdown experiments in Htt-expressing neurons, primary cortical neurons were cotransduced with Htt-expressing lentivirus and Dnmt shRNA or control shRNA lentivirus at DIV 5. pLKO.1-TRC1-luciferase (Luci) and pLKO.1-TRC2-LacZ were used as control for RNAi with pLKO.1-TRC1-Dnmt3a and pLKO.1-TRC2-Dnmt1, respectively. Lentiviral particles were prepared by transfecting 293LE cells with the lentiviral plasmid of interest along with packaging plasmid psPAX2 and envelope plasmid pCMV-SVG as described previously^86. Four days after transfection, viruses in the conditioned media were collected and purified using Lenti-X Concentrator (Clontech). Primary cortical neurons from BACHD mouse embryos (E15.5) were individually plated into separate wells and treated at DIV 4 with decitabine or vehicle for 3.5 days.

[3] = system: Htt-72Q-expressing primary cortical neurons; experiment: Neurofilament (NF) immunofluorescence, neurite degeneration in cortical neurons; settings: fixed at DIV 14; vs. Htt-72Q (0 μM)
Procedure: (§1) Mouse primary cortical and striatal neurons from embryonic day (E) 15.5 Swiss Webster mouse fetuses (Taconic) were first plated in the minimal essential medium (MEM) containing 10% FBS, 0.45% glucose, 1 mM sodium pyruvate, 2 mM glutamine, 20 U/ml penicillin and 20 μg/ml streptomycin, for 3 h and then maintained in serum-free Neurobasal medium (Life Technologies) containing NeuroCult™ SM1 neuronal supplement ([…] Technologies), 0.5 mM glutamine and 25 μM glutamate for the first 3 d in a humidified incubator (37° C. in 5% CO2). Half of the medium was replaced with Neurobasal medium with SM1 and 0.5 mM glutamine every 3 days. Primary cortical neurons plated on 96-well flat clear bottom black plates (Corning #3904) at 4×10^4 cells/well were infected with Htt exon1 expression lentivirus (Htt-25Q or Htt-72Q) or control empty vector lentivirus at 5 days in vitro (DIV 5). Primary striatal neurons plated on 96-well plates at 1×10^5 cells/well were infected with Htt exon1 expression lentivirus at DIV 4. Viral copy number was adjusted for transduction of neurons on the basis of titer measured using the Lenti-X qRT-PCR titration kit (Clontech), and equal numbers of viral particles of Htt-25Q and Htt-72Q expressing lentiviruses were used for transduction. […]
(§2) For the measurement of neurofilament (NF) immunofluorescence intensity, cortical and striatal neurons cultured in a 96-well plate were fixed in 4% paraformaldehyde (PFA) in PBS for 20 min nine and seven days after Htt lentiviral infection, respectively, permeabilized with 0.1% Triton X-100 in PBS for 15 min at room temperature, and subjected to indirect immunofluorescence with anti-NF (2H3) primary antibody and Alexa Fluor 568-conjugated goat anti-mouse IgG secondary antibody (Life Technologies). […] Following image background subtraction, the NF immunofluorescence intensity was quantified using an ImageJ-based macro. Image capture and quantification of Htt (EM48) immunofluorescence intensity were performed as described for those of NF. […] About 300 nuclei from three random fields in a well were counted. […]

[4] = system: Htt-72Q-expressing primary striatal neurons; experiment: Neurofilament (NF) immunofluorescence, neurite degeneration in striatal neurons; settings: DIV 4 striatal neurons transduced, fixed seven days later; vs. Htt-72Q (0 μM)
Procedure: as §1, §2

Molecule | outcome in epigenetic drug screen (84 compounds) [1] | viability of mutant Htt-expressing neurons (MTS assay), validation of screen hits [2] | other results
CNCc1ccc(-c2[nH]c3cc(F)cc4c3c2CCNC4=O)cc1 [AG-014699] | another screen hit | no significant difference in survival | –
CC(=O)Nc1ccc(NC(=S)NC(=O)c2ccc(C(C)(C)C)cc2)cc1 [Tenovin-1] | one of the top three positive compounds | did not significantly increase the viability of mutant Htt-expressing neurons | –
Nc1ncn([C@@H]2O[C@H](CO)[C@@H](O)[C@H]2O)c(=O)n1 [5-azacytidine] | – | – | Htt-72Q-induced neurite degeneration (NF immunofluorescence intensity), cortical neurons [3]: no significant difference in NF immunofluorescence intensity; viability of Htt-72Q-expressing neurons (MTS assay) ([2]; DIV 5 cortical neurons transduced with Htt lentivirus, treated with drug or DMSO (=0 μM), vs. Htt-72Q (0 μM)): no significant difference in survival; mutant Htt-induced neurite degeneration (NF immunofluorescence intensity), striatal neurons [4]: no significant difference in NF immunofluorescence intensity
BDNF: recombinant BDNF protein added in the culture medium (protein, UniProt P23560 19-247, looked up) Neurotrophic factor BDNF …: APMKEANIRGQGGLAYPGVRTHGTLESVNGPKAGSRGLTSLADTFEHVIEELLDEDQKVRPNEENNKDADLYTSRVMLSSQVPLEPPLLFLLEEYKNYLDAANMSMRVRRHSDPARRGELSVCDSISEWVTAADKKTAVDMSGGTVTVLEKVPVSKGQLKQYFYETKCNPMGYTKEGCRGIDKRHWNSQCRTTQSYVRALTMDSKKRIGWRFIRIDTSCVCTLTIKRGR | – | – | viability of Htt-72Q-expressing neurons (MTS assay) ([2]; cultured with recombinant BDNF 50 ng/ml, vs. Htt-72Q with vehicle): increased the viability of Htt-72Q-expressing neurons

— patent US10842807B2, “Methods of treating neurodegenerative disorders comprising DNA methyltransferase inhibitors” (Washington University, priority 2016, dated 2020)
